Literature values in patent publication US11433115B2, “Glycopeptide antibiotics liquid formulations and methods and uses thereof” (SOMERSET THERAPEUTICS, LLC, priority 2020, dated 2022).
Read-outs that look alike come from different tables or passages of the source. Values belong to the compound of their own block, whether it stands above or below them.

Columns and labels:
[1] = orally-dosed pigs, ˜382 mg/kg
[2] = test system: rats; settings: rat, in vivo
[3] = test system: acylases; settings: via the action of acylases

hydrolysis to D- and L-methionine [1]: only minimally hydrolyzed
time to peak plasma concentration after dosing [1]: 15 min
Compound: CSCC[C@@H](NC(C)=O)C(=O)O [NADM, N-acetyl-D-methionine]

Compound: CSCCC(NC(C)=O)C(=O)O (racemic) [N-acetyl-DL-methionine]
LD50 ([2]; ip): 6700 mg/kg

Compound: CSCC[C@H](NC(C)=O)C(=O)O [NALM, N-acetyl-L-methionine]
hydrolysis to L-methionine and acetic acid [3]: completely hydrolyzed
LD50 ([2]; iv): 435 mg/kg

Compound: CC(=O)N[C@H](C)C(=O)O [NADA, N-acetyl D-alanine]
embryo-fetal toxicity (animal reproduction studies): caused fetal malformations

Compound: polyethylene glycol [PEG 400]
embryo-fetal toxicity (in vivo): caused fetal malformations
